Reference: article PMC4603303, “Activity of Novel Synthetic Peptides against Candida albicans” (Scientific Reports, 2015)
Where two headings read alike, the source gives them in different places. Ends that are not written are not given here.

Columns and labels:
C. albicans SC5314 = test: Time killing assay; type: cell-based, Candida albicans
Description: A fungal suspension was adjusted to a 0.5 McFarland turbidity standard with cell density of 1 × 10^6 to 5 × 10^6 cells/ml. 100 μL of adjusted yeast suspension was exposed to 900 μL of RPMI medium containing peptide, yielding a starting inoculum of approximately 10^5 cells/ml. The solutions were incubated at 37°C with agitation. At the predetermined time interval of 0, 1, 2, 4 and 6 hours, 10 μL or 30 μL of the samples were removed, serially diluted with phosphate-buffered saline (PBS) and plated on SDA plates to allow colony counts after 24 hours of incubation. Controls for yeast growth and antifungal agents were also performed. The lower limit of accurate and reproducible quantitation was 100 CFU/ml. Results were obtained from three independent experiments.

VK2/E6E7 cell line = test: cells
Description: (§1) The human normal vaginal epithelial cell line VK2/E6E7 (ATCC® CRL-2616™) and human normal esophagus epithelial cell line Het-1A (ATCC® CRL-2692™) were used for cytotoxicity testing. VK2/E6E7 cell line was grown in Keratinocyte-Serum Free medium (GIBCO-BRL 17005-042) supplemented with 0.1 ng/ml human recombinant EGF, 0.05 mg/ml bovine pituitary extract, and 44.1 mg/L calcium chloride. […] Cell viability was measured by using CellTiter 96® Aqueous Non-Radioactive Cell Proliferation Assay (Promega, USA) and the colourimetric changes were determined at 490 nm using a microplate reader. […] Results were recorded by averaging three repeated experiments and each experiment was performed in duplicate.

Het-1A cell line = test: cells
Description: as §1

human erythrocytes = test: Haemolytic assay; type: cell-based
Description: Freshly collected human blood with heparin was centrifuged to remove the buffy coat. The erythrocytes were washed three times with PBS, centrifuged for 10 min at 2000 rpm at 10°C, and resuspended in PBS to 4% (vol/vol). […] PBS and 0.1% Triton X-100 were used as agents to induce 0 and 100% haemolysis, respectively. Plates were incubated for 1 hour at 37°C and centrifuged at 2000 rpm for 10 min. The supernatant (100 μL) was transferred to a 96-well flat-bottomed polystyrene plate, and the release of haemoglobin was monitored by measuring the absorbance at 560 nm using a microplate reader. Results were repeated three times and each time in duplicate. The percentage of haemolysis was calculated using the following formula: [drawing 2] where Ap and A100 represent the absorbance of erythrocytes treated with peptide and 0.1% Triton X-100. A0 is the absorbance of erythrocytes without treatment.

Candida strains = test: MIC, broth microdilution, range stated over several Candida strains; type: cell-based, Candida spp.
Description: (§2) C. albicans strains SC5314 and ATCC 90028, C. krusei ATCC 6258 and C. parapsilosis ATCC 22019 were used in the study. The strains were stored at −80°C in nutrient broth supplemented with 2.0% glycerol stock. Prior to experimentation, each strain was streaked for single colonies on Sabouraud Dextrose (SDA) agar plates and incubated overnight at 37°C.
(§3) Antifungal activity of the designed peptides was determined according to a standardized broth microdilution method (Clinical and Laboratory Standards Institute (CLSI) document M27-A2). Briefly, the yeast colonies from 24- hour-old cultures of Candida species were picked and resuspended in 5 mL of sterile 0.145 mol/L saline and adjusted to cell density of 1 × 10^6 to 5 × 10^6 cells/ml. The yeast stock suspension was then diluted to obtain a starting inoculum of 5.0 × 10^2 to 2.5 × 10^3 cells/ml. […] The drugs were dissolved in DMSO and prepared to a stock concentration of 25 mg/L and 50 mg/L, respectively. […] 100 μL of standardized yeast suspension was then added to each well. Plates were incubated for 48 hours at 37°C. The minimum inhibitory concentration (MIC) was defined as the lowest concentration that inhibited 90% growth of Candida species. The MICs were determined three times and each time in duplicate.

[1] = system: Candida parapsilosis ATCC 22019; test: MIC, broth microdilution (CLSI M27-A2); type: cell-based
Description: as §2, §3

Candida albicans SC 5314 = test: MIC, broth microdilution (CLSI M27-A2); type: cell-based
Description: as §2, §3

Candida krusei ATCC 6258 = test: MIC, broth microdilution (CLSI M27-A2); type: cell-based
Description: as §2, §3

[2] = system: Candida albicans ATCC 90028; test: MIC, broth microdilution (CLSI M27-A2); type: cell-based
Description: as §2, §3

Substance	% killing (C. albicans SC5314; SC5314, 6 h, 2)	mean log decrease in viable cells (C. albicans SC5314; SC5314, 6 h, 2)	IC50 (VK2/E6E7 cell line; 24 h)	IC50 (VK2/E6E7 cell line; 48 h)	IC50 (VK2/E6E7 cell line; 72 h)	IC50 (Het-1A cell line; 24 h)	IC50 (Het-1A cell line; 48 h)	IC50 (Het-1A cell line; 72 h)	Haemolytic activity HC10 (human erythrocytes; red cells of human, 1 h)	Haemolytic activity HC50 (human erythrocytes; red cells of human, 1 h)	Minimum Inhibitory Concentration (MIC) ([1]; ATCC 22019, 48 h)	Minimum Inhibitory Concentration (MIC) (Candida albicans SC 5314; SC 5314, 48 h)	Minimum Inhibitory Concentration (MIC) (Candida krusei ATCC 6258; ATCC 6258, 48 h)	Minimum Inhibitory Concentration (MIC) ([2]; ATCC 90028, 48 h)	MIC values, range (Candida strains; 48 h)	other results
GVIKAAKKVVKVLKNLF-NH2 [Upn-lys5]	99.99%	4.95 ± 1.24 log CFU/mL	8.67 ± 2.21 µg/mL	10.28 ± 4.53 µg/mL	9.12 ± 1.20 µg/mL	9.73 ± 1.19 µg/mL	9.83 ± 1.40 µg/mL	15.73 ± 0.39 µg/mL	>256 mg/L	>256 mg/L	32 µg/mL	32 µg/mL	32 µg/mL	64 µg/mL		MIC values, range (Candida strains; range against C. albicans and C. krusei): 32 to 64 µg/mL
GVIKAAKKVVNVLKNLF-NH2 [Upn-lys4]	99.97%	4.12 ± 1.36 log CFU/mL	15.45 ± 2.64 µg/mL	16.55 ± 0.55 µg/mL	19.98 ± 1.84 µg/mL	14.12 ± 4.35 µg/mL	14.71 ± 4.44 µg/mL	23.64 ± 2.82 µg/mL	>256 mg/L	>256 mg/L	64 µg/mL	64 µg/mL	64 µg/mL	128 µg/mL		
GIWKKWIKKWLKVLKNLF-NH2 [KU3]	99.94%	3.28 ± 0.30 log CFU/mL	4.43 ± 0.39 µg/mL	5.32 ± 0.84 µg/mL	7.83 ± 1.41 µg/mL	4.33 ± 0.52 µg/mL	4.62 ± 0.65 µg/mL	6.36 ± 1.34 µg/mL	5.65 ± 0.85 mg/L	55.20 ± 11.90 mg/L	8 µg/mL	8 µg/mL	16 µg/mL	16 µg/mL	8 to 16 µg/mL	
GIWKKWIKKWLKKLLKKLWKKG-NH2 [KABT-AMP, reference compound]																% killing (C. albicans SC5314; 2× MIC, within 4 hours): > 99.99%; mean log decrease in viable cells (C. albicans SC5314; 2× MIC, within 4 hours, RPMI, 37°C, mean ± SD of three experiments): 5.4 ± 0.09 log CFU/mL; Haemolytic activity HC10 (human erythrocytes; concentration causing 10% haemolysis, 1 hour, 37°C, erythrocyte suspension 4% in PBS, three times in duplicate): 4.67 ± 2.09 mg/L; Haemolytic activity HC50 (human erythrocytes; concentration causing 50% haemolysis, 1 hour, 37°C, erythrocyte suspension 4% in PBS, three times in duplicate): 81.23 ± 8.92 mg/L; MIC values, range (Candida strains; range against four Candida strains (C. albicans and non-albicans species)): 32 to 64 µg/mL; Minimum Inhibitory Concentration (MIC) ([1]; C. parapsilosis ATCC 22019, RPMI 1640-MOPS, 48 h, 37°C, lowest concentration inhibiting 90% growth, three times in duplicate): 64 µg/mL; Minimum Inhibitory Concentration (MIC) (Candida albicans SC 5314; C. albicans SC 5314, RPMI 1640-MOPS, 48 h, 37°C, lowest concentration inhibiting 90% growth, three times in duplicate): 32 µg/mL; Minimum Inhibitory Concentration (MIC) (Candida krusei ATCC 6258; C. krusei ATCC 6258, RPMI 1640-MOPS, 48 h, 37°C, lowest concentration inhibiting 90% growth, three times in duplicate): 64 µg/mL; Minimum Inhibitory Concentration (MIC) ([2]; C. albicans ATCC 90028, RPMI 1640-MOPS, 48 h, 37°C, lowest concentration inhibiting 90% growth, three times in duplicate): 64 µg/mL
GIWKKWIKKWLNVLKNLF-NH2 [KU2]	99.73%	2.77 ± 0.54 log CFU/mL	5.42 ± 0.49 µg/mL	7.01 ± 0.84 µg/mL	11.38 ± 1.75 µg/mL	5.51 ± 0.44 µg/mL	6.03 ± 0.43 µg/mL	8.89 ± 1.40 µg/mL	7.33 ± 0.73 mg/L	57.71 ± 9.80 mg/L	8 µg/mL	8 µg/mL	16 µg/mL	16 µg/mL	8 to 16 µg/mL	
GIWKKWIKKVVNVLKNLF-NH2 [KU1]	99.82%	2.95 ± 0.59 log CFU/mL	4.28 ± 0.60 µg/mL	4.71 ± 0.22 µg/mL	7.84 ± 1.99 µg/mL	3.61 ± 0.19 µg/mL	4.59 ± 0.26 µg/mL	7.27 ± 1.17 µg/mL	8.07 ± 1.60 mg/L	58.19 ± 2.04 mg/L	16 µg/mL	16 µg/mL	32 µg/mL	32 µg/mL	16 to 32 µg/mL	
GIWKKWIKKWLKKLKNLF-NH2 [KU4]	> 99.99%	5.55 ± 0.08 log CFU/mL	8.75 ± 1.04 µg/mL	10.55 ± 2.33 µg/mL	19.46 ± 4.29 µg/mL	9.75 ± 1.34 µg/mL	10.47 ± 0.50 µg/mL	14.53 ± 1.58 µg/mL	49.38 ± 5.14 mg/L		32 µg/mL	32 µg/mL	16 µg/mL	64 µg/mL	16 to 64 µg/mL	Haemolytic activity HC50 (human erythrocytes): > 256 mg/L
